Results published in US9695155B2, “Herbicidal substituted pyrimidinyloxy benzene compounds” (E. I. DU PONT DE NEMOURS AND COMPANY, priority 2013, dated 2017).

Assays:
barnyardgrass = assay: Test A postemergence; assay type: in vivo, Echinochloa crus-galli; conditions: 0 to 100 scale where 0 is no effect and 100 is complete control
In short: (§1)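 Visual 0–100 rating (100 = complete control) taken about 10 d post-treatment relative to untreated checks. Preemergence: directed soil spray on sown loam/sand pots. Postemergence: seedlings 2–10 cm, 1–2 leaf. Non-phytotoxic solvent formulation with surfactant.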

wheat = assay: Test A postemergence; assay type: in vivo, Triticum aestivum; conditions: 0 to 100 scale where 0 is no effect and 100 is complete control
In short: as §1

Heteranthera limosa = assay: Test B flooded paddy test; assay type: in vivo; conditions: Flood, 250 g ai/ha; 0 to 100 scale where 0 is no effect and 100 is complete control
In short: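 Plants at 2-leaf stage; pots flooded to 3 cm above soil and compound applied directly into paddy water, depth held throughout. After 13 to 15 days in greenhouse, visual rating versus controls on 0 (no effect) to 100 (complete control) scale.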

blackgrass = assay: Test C preemergence; assay type: in vivo, Alopecurus myosuroides; conditions: for Blackgrass plant response rating: preemergence; for Plant response rating, Blackgrass: Preemergence, 31 g ai/ha, scale 0 to 100, 0 no effect, 100 complete control
In short: (§2)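 Seeds were sown in loam–sand blend and sprayed preemergence, while plants at 1- to 4-leaf stage (2–18 cm) in peat-based medium received postemergence sprays; test chemicals were formulated in a non-phytotoxic solvent with surfactant. After 13–15 days in a greenhouse, injury was rated visually against controls, 0 (no effect) to 100 (complete control).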

Italian ryegrass = assay: Test C preemergence; assay type: in vivo, Lolium multiflorum; conditions: for Ryegrass, Italian plant response rating: preemergence; for Plant response rating, Ryegrass, Italian: Preemergence, 31 g ai/ha, scale 0 to 100, 0 no effect, 100 complete control
In short: as §2

wheat, winter = assay: Test C preemergence; assay type: in vivo, Triticum aestivum; conditions: for Wheat plant response rating: preemergence; for Plant response rating, Wheat: Preemergence, 31 g ai/ha, scale 0 to 100, 0 no effect, 100 complete control
In short: as §2

galium = assay: Test C preemergence; assay type: in vivo, Galium aparine; conditions: for Galium plant response rating: preemergence; for Plant response rating, Galium: Preemergence, 31 g ai/ha, scale 0 to 100, 0 no effect, 100 complete control
In short: as §2

morningglory [1] = assay: Test C preemergence; assay type: in vivo, Ipomoea coccinea; conditions: for Morningglory plant response rating: preemergence; for Plant response rating, Morningglory: Preemergence, 31 g ai/ha, scale 0 to 100, 0 no effect, 100 complete control
In short: as §2

waterhemp = assay: Test C preemergence; assay type: in vivo, Amaranthus rudis; conditions: for Waterhemp plant response rating: preemergence; for Plant response rating, Waterhemp: Preemergence, 31 g ai/ha, scale 0 to 100, 0 no effect, 100 complete control
In short: as §2

morningglory [2] = assay: Test C postemergence; assay type: in vivo, Ipomoea coccinea; conditions: for Plant response rating, Morningglory: scale 0 to 100 (0 no effect, 100 complete control)
In short: as §2

[3] = 16 g ai/ha, scale 0 to 100 (0 no effect, 100 complete control)
[4] = 62 g ai/ha, scale 0 (no effect) to 100 (complete control)
[5] = 125 g ai/ha, scale 0 (no effect) to 100 (complete control)
[6] = Postemergence, 31 g ai/ha, 13 to 15 days

SMILES	Plant response rating, Barnyardgrass (barnyardgrass; 500 g ai/ha)	Plant response rating, Wheat (wheat; 500 g ai/ha)	Plant response rating, Ducksalad (Heteranthera limosa)	Blackgrass plant response rating (blackgrass; [3])	Blackgrass plant response rating (blackgrass; [4])	Blackgrass plant response rating (blackgrass; [5])	Plant response rating, Blackgrass (blackgrass)	Ryegrass, Italian plant response rating (Italian ryegrass; [3])	Ryegrass, Italian plant response rating (Italian ryegrass; [4])	Ryegrass, Italian plant response rating (Italian ryegrass; [5])	Plant response rating, Ryegrass, Italian (Italian ryegrass)	Wheat plant response rating (wheat, winter; [3])	Wheat plant response rating (wheat, winter; [4])	Wheat plant response rating (wheat, winter; [5])	Plant response rating, Wheat (wheat, winter)	Galium plant response rating (galium; [3])	Galium plant response rating (galium; [4])	Galium plant response rating (galium; [5])	Plant response rating, Galium (galium)	Morningglory plant response rating (morningglory [1]; [3])	also measured
N#Cc1cccc(Oc2ncc(Br)cn2)c1-n1cc(I)cn1 [Compound 88]	80	50	25	0	60	90	5	0	0	5	0	0	0	5	0	0	90	80	50	0	Plant response rating, Barnyardgrass (barnyardgrass; 125 g ai/ha): 60; Plant response rating, Wheat (wheat; 125 g ai/ha): 0; Morningglory plant response rating (morningglory [1]; [4]): 40; Morningglory plant response rating (morningglory [1]; [5]): 90; Plant response rating, Morningglory (morningglory [1]): 5; Waterhemp plant response rating (waterhemp; [3]): 98; Waterhemp plant response rating (waterhemp; [4]): 100; Waterhemp plant response rating (waterhemp; [5]): 100; Plant response rating, Waterhemp (waterhemp): 100; Plant response rating (0 to 100), Morningglory (morningglory [2]; 125 g ai/ha, postemergence): 95; Plant response rating, Morningglory (morningglory [2]; [6]): 90; Plant response rating, Morningglory (morningglory [2]; Postemergence, 62 g ai/ha): 85
CCOc1cnn(-c2c(C#N)cccc2Oc2ncc(F)cn2)c1 [Compound 89]	90	70	95	0	5	50	0	0	45	50	5	0	0	5	0	30	85	100	100	45	Plant response rating, Barnyardgrass (barnyardgrass; 125 g ai/ha): 40; Plant response rating, Wheat (wheat; 125 g ai/ha): 20; Morningglory plant response rating (morningglory [1]; [4]): 95; Morningglory plant response rating (morningglory [1]; [5]): 98; Plant response rating, Morningglory (morningglory [1]): 35; Waterhemp plant response rating (waterhemp; [3]): 80; Waterhemp plant response rating (waterhemp; [4]): 100; Waterhemp plant response rating (waterhemp; [5]): 100; Plant response rating, Waterhemp (waterhemp): 100; Plant response rating (0 to 100), Morningglory (morningglory [2]; 125 g ai/ha, postemergence): 85; Plant response rating, Morningglory (morningglory [2]; [6]): 70; Plant response rating, Morningglory (morningglory [2]; Postemergence, 62 g ai/ha): 55
Clc1cnc(Oc2cccc(Br)c2-n2cc(Br)nn2)nc1 [Compound 129]	90	70	65	0	5	90	50	0	10	35	0	0	0	15	0	50	95	100	80	5	Barnyardgrass plant response rating (barnyardgrass; 125 g ai/ha): 90; Wheat plant response rating (wheat; 125 g ai/ha): 0; Morningglory plant response rating (morningglory [1]; [4]): 45; Morningglory plant response rating (morningglory [1]; [5]): 75; Plant response rating, Morningglory (morningglory [1]): 35; Waterhemp plant response rating (waterhemp; [3]): 100; Waterhemp plant response rating (waterhemp; [4]): 100; Waterhemp plant response rating (waterhemp; [5]): 100; Plant response rating, Waterhemp (waterhemp): 100; Plant response rating (0 to 100), Morningglory (morningglory [2]; 16 g ai/ha, postemergence, 0 is no effect, 100 is complete control): 75; Plant response rating, Morningglory (morningglory [2]; 125 g ai/ha, postemergence, visual rating): 85; Plant response rating, Morningglory (morningglory [2]; Postemergence, 62 g ai/ha): 80
